Data published in patent US20250320248A1, “MENAQUINONE-BINDING COMPOUNDS AND METHODS OF USE THEREOF” (The Rockefeller University, priority 2021, published 2025).
Starred links: 1 amine or outer side, 2 acyl side, 3 side chain; linkers in the order of their positions; H or OH if unused. Positions of bridges follow the written chain, without caps; N, C: chain ends. Non-standard residues stand in square brackets, D forms with d. Residues, ends and D or L forms follow the SMILES beside them. X1 = CCCCC[C@H](CC(=O)[*:1])O[*:2]; GABA = NCCCC(=O)O

Experiments:
[1] = Isothermal titration calorimetry, DOPC liposomes containing lipid II; type: binding
Experimental: (§1) For MK and UQ binding, a 1:1 mixture of 1,2-dioleoyl-sn-glycero-3-phosphocholine (DOPC) and 1,2-dioleoyl-sn-glycero-3-phospho-rac-(1-glycerol) (DOPG) containing either 1.25 mol % MK4 or UQ10 was dissolved in chloroform. A lipid film was generated by drying this material under a stream of nitrogen followed by 2 h of vacuum drying. The resulting film was hydrated using 10 mM HEPES (pH 7.5) with 100 mM NaCl to give a final total lipid concentration of 5 mM. Using an Avanti Mini Extruder, this suspension was passed through a 100 nm polycarbonate filter 10 times. For ITC the sample cell was filled with 400 μL of 25 μM MBA prepared in 10 mM HEPES buffer. The syringe (150 μL) was loaded with a 5 mM lipid suspension with 1.25 mol % MK4 or UQ10. For lipid II binding, 10 mM DOPC containing 1 mol % lipid II was dissolved in chloroform. The resulting film was hydrated using 50 mM Tris (pH 7.5) with 100 mM NaCl and passed through a 100 nm polycarbonate filter 10 times. For ITC the sample cell was filled with 400 μL of 25 μM an MBA prepared in 50 mM Tris buffer. The syringe (150 μL) was loaded with a 10 mM DOPC suspension with 1 mol % lipid II. Data were collected by using an Auto-iTC200 (Malvern Panalytical) and processed by Affinimeter software using the “one binding site” model.

[2] = Isothermal titration calorimetry, DOPC:DOPG liposomes containing MK; type: binding
Experimental: as §1

[3] = tested on: Mtb mc2 6206/mLux in J774A.1 mouse macrophages; type: cell-based, Mycobacterium tuberculosis
[4] = tested on: methicillin-resistant S. aureus COL; experiment: Mouse peritonitis-sepsis model; details: single subcutaneous dose 1 h after infection
Experimental: Female outbred Swiss Webster mice were used in all experiments. S. aureus COL was grown in Mueller-Hinton Broth at 37° C. overnight and diluted with 7% type II porcine stomach mucin supplemented with 0.2 mM FeNH4-citrate. Cultures were diluted to provide a challenge inoculum of ˜5×10^8 CFU in 0.2 mL. 0.2 mL of the challenge inoculum was administered via intraperitoneal injection.

[5] = tested on: Gram-positive bacteria (Bacillus subtilis, Staphylococcus aureus and Staphylococcus epidermidis); experiment: Antibacterial activity against Gram-positive bacteria (broth micro-dilution); type: cell-based
Experimental: (§2) All antimicrobial assays were run in 96-well microtiter plates using a broth micro-dilution method. Diluted overnight cultures were used in all assays. For yeast strains, overnight cultures were diluted 2000-fold in YPD broth. For Enterococcus faecium and Staphylococcus aureus, overnight cultures were diluted 1000- and 10,000-fold in LB broth, respectively. For Streptococcus strains, overnight cultures were diluted 5,000-fold in Brain Heart Infusion (BHI) broth. For other bacteria, overnight cultures were diluted 5,000-fold in LB broth. 100 μL of each diluted culture was mixed with 100 μL of LB broth containing a syn-BNP at 2-fold serial dilutions across a 96-well microtiter plate row. The final concentration of each compound ranged from 64 to 0.25 μg/mL. Plates were incubated at 37° C. (bacteria) or 30° C. (yeast) for 16 h. The lowest concentration that inhibited visible microbial growth was recorded as the minimum inhibition concentration (MIC). All MIC assays were done in duplicate (n=2).

[6] = tested on: Mycobacterium tuberculosis
[7] = tested on: Enterococcus or Streptococcus strains; experiment: MIC against all eight Enterococcus or Streptococcus strains; type: cell-based; details: MK-producing and MK-deficient
Experimental: as §2

S. aureus tn:hemB = experiment: MIC against S. aureus hemB transposon insertion mutant; type: cell-based, Staphylococcus aureus
Experimental: All antimicrobial assays were run in 96-well microtiter plates using a broth micro-dilution method. Diluted overnight cultures were used in all assays. […] For Enterococcus faecium and Staphylococcus aureus, overnight cultures were diluted 1000- and 10,000-fold in LB broth, respectively. […] For other bacteria, overnight cultures were diluted 5,000-fold in LB broth. 100 μL of each diluted culture was mixed with 100 μL of LB broth containing a syn-BNP at 2-fold serial dilutions across a 96-well microtiter plate row. The final concentration of each compound ranged from 64 to 0.25 μg/mL. Plates were incubated at 37° C. (bacteria) or 30° C. (yeast) for 16 h. The lowest concentration that inhibited visible microbial growth was recorded as the minimum inhibition concentration (MIC). All MIC assays were done in duplicate (n=2).

Mycobacterium smegmatis = details: reported in literature; cited from earlier work

CCCCC[C@@H]1CC(=O)N[C@@H](C(C)C)C(=O)N[C@H](CCCNC(=N)N)C(=O)N[C@@H](C(C)C)C(=O)NCC(=O)N2CCC[C@H]2C(=O)N[C@@H](CC(C)C)C(=O)N[C@H](CCCNC(=N)N)C(=O)N[C@@H](CCC(=O)O)C(=O)N[C@H](Cc2ccc(O)cc2)C(=O)N[C@H](C)C(=O)NCCCC(=O)O1 [MBA3 D-Trp-10 to D-Ala] (V[dR]VGPL[dR]E[dY][dA][GABA]; linker N-C via X1)
lipid II binding [1]: no lipid II binding or similarly low lipid II binding affinities
ability to interact with MK [2]: completely abrogated

CCCCC[C@@H]1CC(=O)N[C@@H](C(C)C)C(=O)N[C@H](CCCNC(=N)N)C(=O)N[C@@H](C(C)C)C(=O)N[C@@H](C)C(=O)N2CCC[C@H]2C(=O)N[C@@H](CC(C)C)C(=O)N[C@H](CCCNC(=N)N)C(=O)N[C@@H](CCC(=O)O)C(=O)N[C@H](Cc2ccc(O)cc2)C(=O)N[C@H](Cc2c[nH]c3ccccc23)C(=O)NCCCC(=O)O1 [MBA3 Gly-4 to L-Ala] (V[dR]VAPL[dR]E[dY][dW][GABA]; linker N-C via X1)
ability to interact with MK [2]: completely abrogated

CCCCC[C@@H]1CC(=O)N[C@@H](C(C)C)C(=O)N[C@H](CCCNC(=N)N)C(=O)N[C@@H](C(C)C)C(=O)NCC(=O)N2CCC[C@H]2C(=O)N[C@@H](CC(C)C)C(=O)N[C@H](CCCNC(=N)N)C(=O)N[C@@H](CCC(=O)O)C(=O)N[C@H](Cc2ccc(O)cc2)C(=O)N[C@H](Cc2c[nH]c3ccccc23)C(=O)NCCCC(=O)O1 [MBA3, metameb] (V[dR]VGPL[dR]E[dY][dW][GABA]; linker N-C via X1)
relative potency in macrophage assay [3]: most potent
lipid II binding [1]: no lipid II binding or similarly low lipid II binding affinities
mortality of infected mice compared to vehicle ([4]; 5, 10 and 30 mg/kg): dramatically decreased
minimal dose required for 100% survival [4]: 10 mg/kg
antibacterial activity against Gram-positive bacteria [5]: good Gram-positive antibiosis
activity against Mtb [6]: active
MIC ([6]; lowest MIC against MDR Mtb): ≥ 0.078 µg/mL

CCCCC[C@@H]1CC(=O)N[C@@H](C(C)C)C(=O)N[C@H](CCC(=O)O)C(=O)N[C@@H](CCCNC(=N)N)C(=O)NCC(=O)N2CCC[C@H]2C(=O)N[C@@H](CC(C)C)C(=O)N[C@H](CCC(N)=O)C(=O)N[C@@H](CCC(=O)O)C(=O)N[C@H](Cc2ccc(O)cc2)C(=O)N[C@H](Cc2c[nH]c3ccccc23)C(=O)NCCCC(=O)O1 [MBA4, alcameb] (V[dE]RGPL[dQ]E[dY][dW][GABA]; linker N-C via X1)
antibacterial activity against Gram-positive bacteria [5]: good Gram-positive antibiosis

CN[C@H](CC(C)C)C(=O)N[C@H]1C(=O)N[C@@H](CC(N)=O)C(=O)N[C@H]2C(=O)N[C@H]3C(=O)N[C@H](C(=O)N[C@H](C(=O)O)c4cc(O)cc(O)c4-c4cc3ccc4O)[C@H](O)c3ccc(c(Cl)c3)Oc3cc2cc(c3O[C@@H]2O[C@H](CO)[C@@H](O)[C@H](O)[C@H]2O[C@H]2C[C@](C)(N)[C@H](O)[C@H](C)O2)Oc2ccc(cc2Cl)[C@H]1O [vancomycin]
antibacterial activity [7]: active
MIC difference between wild-type S. aureus and tn:hemB strain (S. aureus tn:hemB): no significant differences in MIC

lysobactin
antibacterial activity [7]: active
MIC difference between wild-type S. aureus and tn:hemB strain (S. aureus tn:hemB): no significant differences in MIC

lysocin E
activity against Mycobacterium smegmatis (Mycobacterium smegmatis): active

nisin
antibacterial activity [7]: active
Kd ([1]; read-out: lipid II binding affinity Kd): 70 nM
MIC difference between wild-type S. aureus and tn:hemB strain (S. aureus tn:hemB): no significant differences in MIC

ramoplanin
antibacterial activity [7]: active
MIC difference between wild-type S. aureus and tn:hemB strain (S. aureus tn:hemB): no significant differences in MIC
